Source: patent US20240299275A1, “HYDROXY ACIDS FOR SCALP AND HAIR IN SULFATE FREE PERSONAL CARE COMPOSITIONS” (The Procter & Gamble Company, priority 2023, published 2024)
“And” between values parts separate entries of the source, which are not always exact repeats. Identical values can stand only once.

Legend:
[1] = Surfactant stability: change in lauric acid concentration of surfactant solutions after 65 C for 1 month vs baseline (HPLC/MS/MS); assay type: physicochemical; conditions: for Delta % lauric acid/Anionic Surfactant Conc.: 65 C 1 month; for Delta % lauric acid/Co Surfactant Conc.: 8.0% co surfactant alone, 65 C 1 month vs as made at about 25 C
Protocol: Lowering the personal care composition's pH is a key driver of hydroxy acid delivery to the hair and the skin under the hair. However, lowering pH reduces the options of suitable anionic surfactants free-of sulfates as many are susceptible to hydrolysis. Therefore, surfactant stability is analyzed by measuring the change in lauric acid concentration of surfactant solutions after exposure to high temperature (65 C) for 1 month and at range of pH vs. baseline conditions (surfactant solutions as made at ambient temperature of about 25 C). As shown in the table below, the Taurate surfactants are less susceptible to degradation at lower pH and (rows 8-10, 17-21 and 30-33) vs. other common amino acid based anionic surfactants (Sarcosinate, Alaninate, Glutamate, Glycinate, and Isethionate).
Approximately 10 mg of each sample is weighed into a vial and 10 mL of isopropanol (IPA) added and mixed. An aliquot of the diluted sample (0.1 mL) is then transferred into an autosampler vial containing stable-isotope-labeled (D23 lauric acid) internal standard (ISTD) and diluent (85/15 IPA/water, 0.9 mL). A set of lauric acid standards is prepared over an appropriate calibration range in diluent and spiked with ISTD. The standards and samples are analyzed using gradient reversed-phase high performance liquid chromatography with tandem mass spectrometry (HPLC/MS/MS). Lauric acid and the ISTD are monitored by negative ion electrospray (ESI) using “pseudo” selected reaction monitoring (i.e., a precursor-to-precursor transition with no mass loss). A standard curve is constructed by plotting the peak area ratio (peak area lauric acid/peak area ISTD) for each standard versus lauric acid concentration. The amount of lauric acid in the calibration standards and diluted samples is back-calculated using the generated regression equation. The result is reported as the mass of lauric acid per g of sample (% Lauric Acid).

forearm skin = experiment: Surfactant mildness forearm study, GPSkin device, TEWL; assay type: in vivo; conditions: Sodium Methyl Cocoyl Taurate at 2.5% vs Sodium Lauryl Sulfate at 9.0%, pH 3.0 compositions
Protocol: • Method. A simple forearm study design approach is leveraged to screen prototypes for skin health benefits. GPSkin devices from GPOWER Inc. are used to monitor skin health over the duration of the study. Baseline GPSkin health measures are taken on day 1 followed by product treatment and rinse. This procedure is repeated over three consecutive days and two treatments are evaluated. n=7

[2] = 7.0% Cocamidopropyl Betaine + 3.0% anionic surfactant, pH 4.5
[3] = 7.0% Cocamidopropyl Betaine + 3.0% anionic surfactant, pH 5.2
[4] = 7.0% Cocamidopropyl Betaine + 3.0% anionic surfactant, pH 5.8
[5] = 7.0% Cocamidopropyl Betaine + 3.0% anionic surfactant, pH 6.5

Delta % lauric acid/Anionic Surfactant Conc. [1, 2]	Delta % lauric acid/Anionic Surfactant Conc. [1, 3]	Delta % lauric acid/Anionic Surfactant Conc. [1, 4]	Delta % lauric acid/Anionic Surfactant Conc. [1, 5]	Molecule	also measured
1.076%	0.135%	−0.276%	0.024%	Sodium cocoyl taurate	–
12.626%	7.971%	1.791%	0.619%	Sodium cocoyl glycinate	–
9.905%	5.890%	2.058%	1.097%	Sodium cocoyl alaninate	Delta % lauric acid/Anionic Surfactant Conc. ([1]; 8.0% anionic surfactant alone, pH 5.2): 5.735%; Delta % lauric acid/Anionic Surfactant Conc. ([1]; 8.0% anionic surfactant alone, pH 5.6): 2.086%; Delta % lauric acid/Anionic Surfactant Conc. ([1]; 8.0% anionic surfactant alone, pH 6.3): 0.729%
–	7.379%	–	–	Sodium cocoyl isethionate	Delta % lauric acid/Anionic Surfactant Conc. ([1]; 7.0% Cocamidopropyl Betaine + 3.0% anionic surfactant, pH 5.7): 4.277%; Delta % lauric acid/Anionic Surfactant Conc. ([1]; 7.0% Cocamidopropyl Betaine + 3.0% anionic surfactant, pH 6.4): 3.124%
–	–	–	–	Cocamidopropyl Betaine	Delta % lauric acid/Co Surfactant Conc. ([1]; pH 5.2): 0.130%; Delta % lauric acid/Co Surfactant Conc. ([1]; pH 5.8): 0.216%; Delta % lauric acid/Co Surfactant Conc. ([1]; pH 6.5): 0.187% and 0.154%
16.097%	5.262%	2.867%	3.002%	CCCCCCCCCCCC(=O)OC(C)CS(=O)(=O)[O-].[Na+] (centres unmarked) [Sodium Lauroyl Methyl Isethionate]	–
–	1.005% and 1.220% and 1.468%	0.689%	0.510%	Sodium methyl cocoyl taurate	mildness on forearm skin (forearm skin): milder on forearm skin than Sodium Lauryl Sulfate at 9.0%; Delta % lauric acid/Anionic Surfactant Conc. ([1]; 8.0% anionic surfactant alone, pH 5.1): 0.218%; Delta % lauric acid/Anionic Surfactant Conc. ([1]; 8.0% anionic surfactant alone, pH 5.8): 0.026%; Delta % lauric acid/Anionic Surfactant Conc. ([1]; 8.0% anionic surfactant alone, pH 6.5): 0.223%
